Here are results for 17 compounds from patent publication US11718628B2, “SREBP inhibitors comprising a 6-membered central ring” (Capulus Therapeutics, LLC, priority 2018, dated 2023).

Values after ≈ are worked out from the molar mass of the structure shown.

Series [1] in a line: Half-life in human liver microsomes. Particulars: NADPH, 37° C.; for half-life at 1 µM: human, liver microsomes, read-out: G: half-life human liver microsomes. The format is in vitro ADME. As to the method: (§1) Half-life Human Microsomes: Compounds were evaluated for stability in human liver microsomes. A 10 mM stock solution of the compound being evaluated was prepared in DMSO and diluted with water:acetonitrile (1:1) to a concentration of 1 mM. A working concentration of 100 μM was prepared by further dilution with water:acetonitrile (1:1). To make the preincubation mixture, 2.5 μL of the diluted compound was combined with 75 μL of human liver microsomes at 3.33 mg/mL, and 85 μL of 100 mM potassium phosphate buffer, and this mixture was pre-incubated for 10 min at 37° C. To make the 60 minute mixture without cofactor, 32.5 μL of the preincubation mixture was combined with 17.5 μL of 100 mM potassium phosphate buffer and incubated for 60 min at 37° C. To make the 0 min sample with cofactor (NADPH), 16.25 μL of the preincubation mixture was combined with 200 μL of acetonitrile containing internal standard and 8.75 μL of cofactor (NADPH). To make the incubation mixture, 62 μL of cofactor (2.85 mM) was combined with the remaining incubation mixture, and incubated for 60 min at 37° C. To prepare the sample mixture to be evaluated, 25 μL incubation mixture was combined with 200 μL of acetonitrile containing internal standard and vortexed for 5 min at 1200 rpm, then centrifuged for 10 min at 4000 rpm. The supernatant was diluted 2 fold with water and injected on LC-MS/MS. The sample mixture was evaluated by LC-MS/MS using 10 mM ammonium acetate with 0.1% FA as the aqueous mobile phase, and methanol as the organic mobile phase.
Background: Liver microsomes are a subcellular fraction often used to study metabolism.

A short description of series [2]: Half-life in mouse liver microsomes. Particulars: for half-life at 1 µM: mouse, liver microsomes, read-out: H: half-life of mouse liver microsomes. The series is classed as in vitro ADME. How it is done:
as §1
Half-life Mouse Microsomes: Compounds were evaluated in mouse liver microsomes following a similar procedure as described above for human liver microsomes. A similar procedure could be used to evaluate compounds in rat liver microsomes.

The nature of series [3]: Kinetic solubility. The format is physicochemical. To be noted: pH 7.4 buffer, room temperature, 1.0% DMSO; for solubility kinetic at 24 h: aqueous buffer, kinetic from dmso stock, read-out: I: kinetic solubility class. How it is done: Kinetic Solubility Procedure: A 10 mM stock solution of a compound was prepared in DMSO, then 4 μL of the stock was added to a deep well plate containing 396 μL of pH 7.4 buffer. The sample plate was vortexed at 800 rpm for 24 h on thermomixer at room temperature. The plate was sealed well during the incubation process. The DMSO content in the sample was 1.0%. The concentration of the evaluated compound in the final incubation was 100 μM. At the end of the incubation period, the sample plate was centrifuged at 4000 rpm for 10 min and analyzed in LC-UV against a calibration curve (CC). Values <10 μg/mL=Low; 10 to 60 μg/mL=Medium; >60 μg/mL=High.

A short description of series [4]: In vivo pharmacokinetic properties in rats (IV and PO). Also on record: species or system male Sprague Dawley rats. As to the method: (§2) The in vivo pharmacokinetic properties of compounds by both intravenous and oral administration were evaluated in male Sprague Dawley rats or C57BL/6J mice.
(§3) Animals were housed in cages with clean bedding. Certified rodent diet was provided. Water was available ad libitum. Environmental controls for the animal room were set to maintain a temperature of 22° C. to 25° C., humidity of 40-70% RH, and a 12-hour light/12-hour dark cycle. Normal healthy animals certified by the attending veterinarian were selected and acclimatized for minimum three days prior to initiation of study.
Surgical Procedure for Jugular Vein Cannulation of Rats: Rats were anaesthetized with a single dose of ketamine 50 mg/kg i.p.+xylazine 6 mg/kg i.p. The right jugular vein was exposed, a loose ligature was placed caudally, and the cranial end of vein was ligated. A small incision was made between the ligatures into which the catheter (polyethylene 50 tubing of internal diameter 0.58 mm and outer diameter 0.96 mm) was inserted. The catheter was secured in place by tying the loose ligature around the catheterized vessel. A small incision was made in the scapular region to serve as the exit site of the catheter. The catheter was subcutaneously tunneled and exteriorized through scapular incision. A stay suture was placed in the scapular area. Patency was tested, and catheter was filled with a locking solution (heparinized saline) and sealed with a stainless steel plug. The incision was then sutured with sterile suturing material. Anti-septic solution was applied to the sutured site and animal was placed back in the home cage.
(§4) To evaluate pharmacokinetic properties of intravenous delivery, male Sprague Dawley rats were administered 2.00 mg compound/kg animal weight through the tail vein. The concentration of the compound in the plasma of the animals was evaluated at 0.083, 0.25, 0.5, 1, 2, 4, 8, 12 and 24 hr by taking blood samples from the cannulated jugular vein. For the C5Bl/6J mice, blood samples were collected through a capillary, guided in retro-orbital plexus.
To evaluate pharmacokinetic properties of oral delivery, rats (male Sprague Dawley rats) or mice (C5Bl/6J) were administered 10 mg compound/kg animal weight by mouth. The concentration of compound in the plasma of the animals was evaluated at 0.25, 0.5, 1, 2, 4, 6, 8, 12 and 24 hr by taking blood samples from the cannulated jugular vein (rats) or through a capillary, guided in retro-orbital plexus (mice).

Series [5] is described as follows: In vivo pharmacokinetic properties in mice (IV and PO). To be noted: mice. Also on record: species or system C57BL/6J mice. How it is done: as §2, §3, §4
[…] The concentration of compound in the plasma of the animals was evaluated at 0.25, 0.5, 1, 2, 4, 6, 8, 12 and 24 hr by taking blood samples from the cannulated jugular vein (rats) or through a capillary, guided in retro-orbital plexus (mice).

On to `O=C(c1ccc(-c2cncc(-c3ccnc4c3CCC4)c2)c(Cl)c1)N1CCC(O)CC1`, for which the half-life at 1 µM amounted to 9.79 min in series [1] and 0.457 h in series [2]. Also, the solubility (kinetic) at 24 h in series [3] was 10 to 60 µg/mL (≈ 23 to 138 µM).
Take `CC(C)(C)c1cc(-c2cncc(-c3ccc(NC(=O)OC4CCC(O)CC4)cc3Cl)c2)ccn1` (stereo not drawn): the half-life at 1 µM in series [1] was 31.3 min; in series [2], 2 h. In addition, the solubility (kinetic) at 24 h in series [3] is under 10 µg/mL.
For the compound `CC(C)(C)c1cc(-c2cncc(-c3ccc(C(=O)N4CCC(O)CC4)cc3)c2F)ccn1` [drawing 321], the half-life at 1 µM in series [1] worked out at 126 min; in series [2], 1.38 h. Moreover, in series [3], the kinetic solubility at 24 h was 10 to 60 µg/mL (≈ 23.1 to 138 µM).
Turning to `Cc1cc(C(=O)N2CCC(O)CC2)ccc1-c1cncc(-c2ccnc(C(C)(C)C)c2)c1` [drawing 337], the half-life at 1 µM in series [1] is 13.9 min; in series [2] it was 3.55 h. In addition, the solubility (kinetic) at 24 h in series [3] was in the range of 10 to 60 µg/mL (≈ 23.3 to 140 µM).
Taken in the same sequence, the figures for `CC(C)(C)c1cc(-c2cncc(-c3ccc(NS(C)(=O)=O)cc3Cl)c2)ccn1` [drawing 346] were 19.8 min, 0.993 h and under 10 µg/mL.
Turning to `CC(C)(O)c1cc(-c2cncc(-c3ccc(C(=O)N4CCC(O)CC4)cc3Cl)c2)ccn1` [drawing 356], the half-life at 1 µM in series [1] amounted to 541 min; in series [2], 48.7 h. In addition, the kinetic solubility at 24 h in series [3] was in the range of 10 to 60 µg/mL (≈ 22.1 to 133 µM).
On to `CC1(O)CCCN(C(=O)c2ccc(-c3cncc(-c4ccnc(C(C)(C)C)c4)c3)c(Cl)c2)C1` (stereo not drawn) [drawing 366], for which the half-life at 1 µM in series [1] amounted to 5.81 min; in series [2] it was 0.19 h. Further, in series [3], the kinetic solubility at 24 h is 10 to 60 µg/mL (≈ 21.6 to 129 µM).
Regarding `CC1(O)CCN(C(=O)c2ccc(-c3cncc(-c4ccnc(C(C)(C)C)c4)c3)c(Cl)c2)CC1` [drawing 369], the values for the half-life at 1 µM in series [1] and in series [2] were 13 min and 0.505 h, respectively. The kinetic solubility at 24 h in series [3] was in the range of 10 to 60 µg/mL (≈ 21.6 to 129 µM).
For `CC(C)OC(=O)Nc1ccc(-c2cncc(-c3ccnc(C4OCCO4)c3)c2)c(Cl)c1` [drawing 371], in that order: 13.5 min, 0.32 h and under 10 µg/mL.
With `CC(C)OC(=O)Nc1ccc(-c2cncc(-c3ccnc(C(C)(C)C)c3)c2)c(Cl)c1` [drawing 372], the half-life at 1 µM in series [1] was 69.9 min; in series [2], 3.7 h. Also, in series [3], the solubility (kinetic) at 24 h was under 10 µg/mL.
`COC1CCCN(C(=O)c2ccc(-c3cncc(-c4ccnc(C(C)(C)C)c4)c3)c(Cl)c2)C1` (stereo not drawn) [drawing 375]: the results for the half-life at 1 µM in series [1] and in series [2] were 2.02 min and 0.15 h, respectively. In addition, the kinetic solubility at 24 h in series [3] is 10 to 60 µg/mL (≈ 21.6 to 129 µM).
For `CC(C)(C)c1cc(-c2cc(-c3ccc(C(=O)N4CCC(O)CC4)cc3Cl)ncn2)ccn1` [drawing 376], in that order: 20.3 min, 1.14 h and 10 to 60 µg/mL (≈ 22.2 to 133 µM).
With `CC(C)(C)c1cc(-c2cccc(-c3ccc(C(=O)N4CCC(O)CC4)cc3Cl)c2)ccn1` [drawing 377], the half-life at 1 µM in series [1] was found to be 46.5 min; in series [2] it was 1.5 h. In series [3], the solubility (kinetic) at 24 h was under 10 µg/mL.
With `CC(C)(C)c1cc(-c2cncc(-c3ccc(C(=O)N4CCC(O)CC4)cc3Cl)c2)ccn1` [drawing 378], the half-life at 1 µM in series [1] came to 61.2 min; in series [2], 1.33 h. Further, the solubility (kinetic) at 24 h in series [3] fell in the range of 10 to 60 µg/mL (≈ 22.2 to 133 µM).
Regarding `CC(C)(C)c1cc(-c2cncc(-c3ccc(C(=O)N4CCC(O)C(O)C4)cc3Cl)c2)ccn1` (stereo not drawn) [drawing 419], the half-life at 1 µM in series [1] amounted to 21.8 min; in series [2] it was 1.11 h. The solubility (kinetic) at 24 h in series [3] is 10 to 60 µg/mL (≈ 21.5 to 129 µM).
For `CC(C)(C)c1cc(-c2cncc(-c3ccc(C(=O)N4CCC(O)C(O)C4)cc3Cl)c2)ccn1` (stereo not drawn) [drawing 423], the “G: half-life human liver microsomes” value in series [1] came out at 21.4 min. In addition, in series [2], the “H: half-life of mouse liver microsomes” value is recorded as 56.5 min. In addition, the “I: kinetic solubility class” value in series [3] (24 h) is reported as “MEDIUM (10 to 60 μg/mL=Medium)”.
In the case of “N-(4-(2′-(tert-butyl)-[3,4′-bipyridin]-5-yl)-3-chlorophenyl)-isopropylsulfamoyl urea [Compound Z-812]”, in series [4] (IV, 2 mg/kg), the “Intravenous Delivery (IV) CL” value was found to be 53.5 mL/min/kg, the “Intravenous Delivery (IV) T1/2” value came to 112 min and the “Intravenous Delivery (IV) Vd” value worked out at 8.65 L/kg. The “% F (Bioavailability of oral delivery)” value in series [4] (PO 10 mg/kg vs IV 2 mg/kg) worked out at 0.65%. For the same compound, in series [4] (PO, 10 mg/kg), the Oral Administration (PO) AUC0-last stood at 18 ng·h/mL, the “Oral Administration (PO) T1/2” value came to 81 min and the “Oral Administration (PO) Tmax” value worked out at 19.8 min. In addition, in series [5] (IV, 2 mg/kg), the Intravenous Delivery (IV) AUC0-last worked out at 1150 ng·h/mL, the “Intravenous Delivery (IV) CL” value worked out at 28.6 mL/min/kg, the “Intravenous Delivery (IV) T1/2” value was 67.2 min and the “Intravenous Delivery (IV) Vd” value is 2.78 L/kg. Besides, in series [5] (PO 10 mg/kg vs IV 2 mg/kg), the “% F (Bioavailability of oral delivery)” value amounted to 52%. In series [5] (PO, 10 mg/kg), the Oral Administration (PO) AUC0-last amounted to 3000 ng·h/mL, the “Oral Administration (PO) T1/2” value came to 253 min and the “Oral Administration (PO) Tmax” value is 15 min.

In general, half-life refers to the time in which the quantity being followed falls by half. As usually defined, the solubility (kinetic) is solubility judged after dilution from a stock solution rather than from solid.
